Legend:
Conditions in all cases: exposure time: 72 h
E13 [1] = patient-derived glioblastoma stem cells of classical subtype; experiment: surviving fraction (nuclei count normalised to DMSO); higher = more cells surviving (less toxic)
E21 [2] = patient-derived glioblastoma stem cells of mesenchymal subtype; experiment: as above
E28 [3] = patient-derived glioblastoma stem cells of classical subtype; experiment: as above
E31 [4] = patient-derived glioblastoma stem cells of proneural subtype; experiment: as above
E34 [5] = patient-derived glioblastoma stem cells of proneural subtype; experiment: as above
E57 [6] = patient-derived glioblastoma stem cells of mesenchymal subtype; experiment: as above
FT3469 [7] = normal neural stem cell line; experiment: as above
E13 [8] = experiment: phenotypic distance (Euclidean, principal components) from DMSO controls (arbitrary units); higher = stronger morphological change
E21 [9] = experiment: as above
E28 [10] = experiment: as above
E31 [11] = experiment: as above
E34 [12] = experiment: as above
E57 [13] = experiment: as above
FT3469 [14] = experiment: as above
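For phenotypic distance (Euclidean, principal components) from DMSO controls in this document: cell Painting imaging in 384-well plates, CellProfiler features reduced to at least 20 principal components, Euclidean distance versus same-plate DMSO vehicle wells (0.1% v/v), median over six images per well.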
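For surviving fraction (nuclei count normalised to DMSO) in this document: nuclei counted by high-content imaging of Hoechst-stained cells in laminin-coated 384-well plates, relative to 0.1% DMSO vehicle wells, with staurosporine as cell-death control.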

Nc1ncnc2c1c(-c1ccc(Oc3ccccc3)cc1)cn2C1CCCC1
Conditions | phenotypic distance | surviving fraction
E13 [1], 4.1 nM | – | 0.996
E13 [1], 12.3 nM | – | 1.07
E13 [1], 37 nM | – | 0.893
E13 [1], 111.1 nM | – | 0.884
E13 [1], 333.3 nM | – | 1.02
E13 [1], 1000 nM | – | 0.997
E13 [1], 3000 nM | – | 0.855
E13 [8], 4.1 nM | 0.425 | –
E13 [8], 12.3 nM | 1.04 | –
E13 [8], 37 nM | 0.606 | –
E13 [8], 111.1 nM | 0.653 | –
E13 [8], 333.3 nM | 0.532 | –
E13 [8], 1000 nM | 0.572 | –
E13 [8], 3000 nM | 0.738 | –
E21 [2], 4.1 nM | – | 0.864
E21 [2], 12.3 nM | – | 1.05
E21 [2], 37 nM | – | 1.03
E21 [2], 111.1 nM | – | 0.984
E21 [2], 333.3 nM | – | 0.967
E21 [2], 1000 nM | – | 1.01
E21 [2], 3000 nM | – | 0.85
E21 [9], 4.1 nM | 0.617 | –
E21 [9], 12.3 nM | 0.6 | –
E21 [9], 37 nM | 0.721 | –
E21 [9], 111.1 nM | 0.773 | –
E21 [9], 333.3 nM | 0.934 | –
E21 [9], 1000 nM | 1.32 | –
E21 [9], 3000 nM | 0.949 | –
E28 [3], 4.1 nM | – | 1.07
E28 [3], 12.3 nM | – | 0.954
E28 [3], 37 nM | – | 0.988
E28 [3], 111.1 nM | – | 0.704
E28 [3], 333.3 nM | – | 1.2
E28 [3], 1000 nM | – | 0.86
E28 [3], 3000 nM | – | 0.854
E28 [10], 4.1 nM | 0.587 | –
E28 [10], 12.3 nM | 0.603 | –
E28 [10], 37 nM | 0.442 | –
E28 [10], 111.1 nM | 0.847 | –
E28 [10], 333.3 nM | 0.677 | –
E28 [10], 1000 nM | 0.737 | –
E28 [10], 3000 nM | 0.765 | –
E31 [4], 4.1 nM | – | 1.06
E31 [4], 12.3 nM | – | 1.07
E31 [4], 37 nM | – | 0.999
E31 [4], 111.1 nM | – | 0.95
E31 [4], 333.3 nM | – | 0.97
E31 [4], 1000 nM | – | 0.936
E31 [4], 3000 nM | – | 0.884
E31 [11], 4.1 nM | 0.613 | –
E31 [11], 12.3 nM | 0.704 | –
E31 [11], 37 nM | 0.739 | –
E31 [11], 111.1 nM | 0.965 | –
E31 [11], 333.3 nM | 0.777 | –
E31 [11], 1000 nM | 1.23 | –
E31 [11], 3000 nM | 0.466 | –
E34 [5], 4.1 nM | – | 1.23
E34 [5], 12.3 nM | – | 0.986
E34 [5], 37 nM | – | 1.18
E34 [5], 111.1 nM | – | 1.03
E34 [5], 333.3 nM | – | 0.93
E34 [5], 1000 nM | – | 0.958
E34 [5], 3000 nM | – | 0.916
E34 [12], 4.1 nM | 0.654 | –
E34 [12], 12.3 nM | 0.927 | –
E34 [12], 37 nM | 0.674 | –
E34 [12], 111.1 nM | 0.841 | –
E34 [12], 333.3 nM | 0.534 | –
E34 [12], 1000 nM | 0.71 | –
E34 [12], 3000 nM | 0.746 | –
E57 [6], 4.1 nM | – | 0.986
E57 [6], 12.3 nM | – | 1.06
E57 [6], 37 nM | – | 1.08
E57 [6], 111.1 nM | – | 1.06
E57 [6], 333.3 nM | – | 1.03
E57 [6], 1000 nM | – | 0.942
E57 [6], 3000 nM | – | 0.951
E57 [13], 4.1 nM | 0.461 | –
E57 [13], 12.3 nM | 1.24 | –
E57 [13], 37 nM | 1 | –
E57 [13], 111.1 nM | 1.29 | –
E57 [13], 333.3 nM | 0.478 | –
E57 [13], 1000 nM | 0.867 | –
E57 [13], 3000 nM | 0.813 | –
FT3469 [7], 4.1 nM | – | 0.964
FT3469 [7], 12.3 nM | – | 1.04
FT3469 [7], 37 nM | – | 0.976
FT3469 [7], 111.1 nM | – | 0.901
FT3469 [7], 333.3 nM | – | 0.875
FT3469 [7], 1000 nM | – | 0.967
FT3469 [7], 3000 nM | – | 0.895
FT3469 [14], 4.1 nM | 0.487 | –
FT3469 [14], 12.3 nM | 1.13 | –
FT3469 [14], 37 nM | 0.764 | –
FT3469 [14], 111.1 nM | 0.833 | –
FT3469 [14], 333.3 nM | 1.17 | –
FT3469 [14], 1000 nM | 0.824 | –
FT3469 [14], 3000 nM | 0.929 | –
